{"source": "patent US11541065B2", "about": "“Compositions and methods for treating brain injury” (UNM RAINFOREST INNOVATIONS, priority 2018, dated 2023)", "tested_on": "hyperhomocysteinemic rats subjected to MCAO", "assay": "Adhesive removal test after MCAO", "format": "in vivo, male Wistar rats", "conditions": "HHcy rats, 9 days after MCAO, NVP-AAM077 1.2 mg/kg", "description": "All rats were subjected to a battery of behavioral tests on day 7 (CatWalk), day 8 (cylinder and rotarod tests) and day 9 (adhesive test) after MCAO to evaluate normal gait, motor coordination and sensory motor functions. Habituation and training (3 days) was performed for one week before MCAO. The first two trainings days were before osmotic pump implantation and the third training day was after pump implantation. An experienced observer blinded to the experimental conditions evaluated all behavioral parameters.\nAdhesive removal test: Sensorimotor deficits following stroke was assessed by performing the adhesive removal test in control, hyperhomocysteinemic and NVP-AAM077 treated hyperhomocysteinemic rats. A small adhesive patch (7 mm×3 mm) was applied to the contralateral forepaw of each rat with equal pressure and the time taken to notice the presence of the patch (time to contact) and to remove it (time to remove) was recorded (Bouet et al., 2009, Nat Protoc 4:1560-1564). The time taken to notice the patch was recorded from the moment of placing the patch until the paw was shaken or touched by mouth. The time taken to remove the patch was recorded from the moment the mouth touched the paw to the time the patch was removed. The trial ended after the adhesive patch was removed or a maximum latency of three minutes. […]"}
{"smiles": "C[C@H](NC(c1cccc2[nH]c(=O)c(=O)[nH]c12)P(=O)(O)O)c1ccc(Br)cc1", "note": "(stereo partly drawn) [NVP-AAM077, ({[(1S)-1-(4-bromophenyl)ethyl]amino}-(2,3-dioxo-1,4-dihydroquinoxalin-5-yl)methyl)phosphonic acid]", "values": [{"measurement": "time to contact adhesive tape, contralateral forepaw", "setting": "untreated HHcy 76.82±5.45 s", "result": "31.18 ± 5.68", "unit": "s"}, {"measurement": "time to remove adhesive tape, contralateral forepaw", "setting": "untreated HHcy 127.86±7.29 s", "result": "44.24 ± 7.59", "unit": "s"}]}
